Reference: PMC8874959 (Viruses, 2022)
Converted amounts (≈) assume the structure as drawn. “Also recorded” adds a separate entry of the source. Read-outs that look alike come from different tables or passages of the source.

What was measured:
SARS-CoV-2 [1] = format: cell-based
SARS-CoV-2 Gamma strain = experiment: microbe, parasite or virus in culture; format: cell-based; conditions: Severe acute respiratory syndrome coronavirus 2; Calu-3, Gamma strain, MOI 0.1, 48 hpi
in vitro [2] = format: cell-based; conditions: human
in vitro [3] = format: cell-based; conditions: African green monkey
SARS-CoV-2 [4] = conditions: cited from earlier work
[5] = cited from earlier work; for Plasma protein binding: Table S3, ref DrugBank, PubChem, Warhurst, et al JAC 2003, Schroeder and Gerber Toxicol. Rep. 2014
[6] = ref DrugBank; PubChem; Warhurst, et al JAC 2003; Schroeder and Gerber Toxicol. Rep. 2014; cited from earlier work
tuberculosis = conditions: cited from earlier work
[7] = PBPK input, cited from earlier work
[8] = test system: SARS-CoV-2-infected monocytes; format: cell-based, human
[9] = cited from earlier work; for Cmax: human plasma
SARS-CoV-2 [10] = conditions: Vero-E6, cited from earlier work
SARS-CoV-2 [11] = format: cell-based; remark: listed apart in the source

Structure (SMILES)	EC50 (SARS-CoV-2 Gamma strain) [µM]	EC90 (SARS-CoV-2 Gamma strain) [µM]	CC50 (in vitro [2]) [µM]	CC50 (in vitro [3]) [µM]	Antiviral activity in SARS-CoV-2-infected Calu-3 cells (SARS-CoV-2 [4])	Plasma protein binding [5]	LogP [6]	pKa1 [6]	pKa2 [6]	pKa3 [6]	also measured
CCC(CC)COC(=O)[C@H](C)N[P@](=O)(OC[C@H]1O[C@@](C#N)(c2ccc3c(N)ncnn23)[C@H](O)[C@@H]1O)Oc1ccccc1 [Remdesivir]	0.01 ± 0.008	0.2 ± 0.02	480 ± 20	512 ± 30							Improvement of remdesivir's efficiency (SARS-CoV-2 [1]): 200 fold
CCN(CC)CCCC(C)Nc1ccnc2cc(Cl)ccc12 (stereo not drawn) [Chloroquine]					inactive; also recorded: lacks antiviral activity	46-74%					CC50 at 72 h (in vitro [3]; Vero E6, 72 h): 259 ± 5 µM
OC(c1cc(C(F)(F)F)nc2c(C(F)(F)F)cccc12)C1CCCCN1 (stereo not drawn) [Mefloquine]	1.2 ± 0.4	2.7 ± 0.3	19.9 ± 0.06	9.2 ± 0.3		> 98%	3.90	lower than 3.0	9.46	13.79	Water solubility [6]: 38 µg/mL; Minimal inhibitory concentration (tuberculosis): 20 µM (≈ 7.57 µg/mL); Half-life ([7]; ref 11 (supplement)): 2-4 weeks; Intrinsic clearance ([7]; ref 12 (supplement)): 10.47 L/h; Log P ([7]; ref 12 (supplement)): 3.87; pKa (diprotic base) ([7]; ref 12 (supplement)): 8.7; Virus-induced IL-6 levels [8]: reduce the augmentation of these cytokines in a donor-dependent manner; Virus-induced TNF-α levels [8]: reduce the augmentation of these cytokines in a donor-dependent manner; Virus-induced monocyte death (LDH) [8]: reduce virus-induced monocyte death; Half-life [9]: measured in weeks; Cmax ([9]; equivalent): 8.67 µM; Cmax [9]: 3279 ng/mL; EC90 (SARS-CoV-2 [10]; ref 8 (supplement)): 3.0643 µg/mL (≈ 8.1 µM); EC90 (SARS-CoV-2 [10]; ref 9 (supplement)): 2.4552 µg/mL (≈ 6.49 µM); EC90 (SARS-CoV-2 [10]; ref 10 (supplement)): 2.5138 µg/mL (≈ 6.64 µM); Number of viral particles in the endosomes (SARS-CoV-2 [11]): reduced the number of viral particles in the endosomes; Protein binding ([5]; PBPK input, ref 12 (supplement)): 98%
CCN(CCO)CCCC(C)Nc1ccnc2cc(Cl)ccc12 (stereo not drawn) [Hydroxychloroquine, hydroxychloroquine]					lacks antiviral activity	50%	4.12	< 4.0	8.3	9.7	Lipinski’s rule of five [6]: Yes; Physiological charge [6]: +2
